# Assay: Solubility in toluene
# Format: physicochemical
# Conditions: organic solvent or mixture, thermodynamic from solid; 20 mg compound mixed with toluene (1 mL)
# Source text: A: The compound was completely dissolved.
# B: A bit of the compound was left undissolved.
# C: Most of the compound was left undissolved.
row,solubility,SMILES
1,< 20 mg/mL,"CCc1cc2sc3cc4sc5cc(CC)sc5c4cc3c2s1 [Comparative compound 1, reference compound]"
2,> 20 mg/mL,CC(C)CCCC(C)CCc1ccc(-c2cc3sc4cc5sc6cc(-c7ccc(CCC(C)CCCC(C)C)s7)sc6c5cc4c3s2)s1 (stereo not drawn) [Compound 33]
3,> 20 mg/mL,CC(C)CCCC(C)CCc1cc2sc3cc4sc5cc(CCC(C)CCCC(C)C)sc5c4cc3c2s1 (stereo not drawn) [Compound 31]

# — US9705096B2, “Organic transistor, compound, organic semiconductor material for non-light-emitting organic semiconductor device, material for organic transistor, coating solution for non-light-emitting organic semiconductor device, organic semiconductor film for non-light-emitting organic semiconductor device, …” (FUJIFILM Corporation, priority 2014, dated 2017)
